Experiments:
H9c2 cells [1] = experiment: MTT cell viability assay in doxorubicin-treated cells; type: cell-based; conditions: H9c2 cells treated for 24 hours with 0.5 µM doxorubicin; for minimal effective concentration: Rattus norvegicus, MTT dose-response curve, read-out: minimum effective concentration required to improve viability (sufficient to induce protection)
Procedure: Cells were seeded at a concentration of 1.8x10^3/well in 96-well plates and incubated at 37°C for 24 hours. Cells were then incubated for additional 24 hours after addition of water or doxorubicin (0.5 µM final concentration) in presence of different concentrations of Cr and/or Rib, as indicated in the figures. Cell viability was determined by the 2-(4,5-dimethyltriazol-2-yl)-2,5-diphenyl tetrazolium bromide assay (MTT, Sigma, St Louis, Mo). Briefly, after addition to each well of 20µl of the MTT solution in PBS at a concentration of 5 mg/ml, cells were incubated at 37°C for 4 hours. After removal of the supernatant, 100 µl of DMSO were added to dissolve the formazan salts produced and optical density (OD) was read at λ=540 nm. For each treatment, five replicates were performed. The viability index was calculated, for each treatment, as ODx/OD0, where ODx and OD0 are the average ODs at time x and at time zero.
The optimal working concentration was determined by a dose-response curve using the MTT assay (vital dye staining) in presence of Creatine and Ribose. To test the efficacy of creatine and ribose in maintaining cellular energy homeostasis, H9c2 cells were treated with doxorubicin, a well-known cardiotoxic agent that causes mitochondrial damage resulting in production of reactive oxygen species.

H9c2 cells [2] = experiment: Cell cycle profile by flow cytometry (propidium iodide) in simulated ischemia; type: cell-based; conditions: ischemic H9c2 cells; 2.5 mM Creatine and/or 5 mM Ribose
Procedure: The cell cycle profile was analyzed by flow cytometry after DNA staining with propidium iodide (PI, Sigma, St. Louis, Mo.). Cells were washed with PBS and fixed with 70% ethanol at -20°C, centrifuged (15 min at 1800 rpm), resuspended in 1 ml PBS containing 50 µg/ml PI and incubated for 1 hour at room temperature Cells were then analyzed by flow cytometry in a FACSorter (Becton Dickinson). The percentage of cells in different phases of the cell cycle was calculated using the CellQuest software program (Becton Dickinson).

SMILES | minimal effective concentration (H9c2 cells [1]) | change of the percentage of cells progressing from G1 to S phase (H9c2 cells [2]) | decrease of viability compared to untreated cells (H9c2 cells [1]; MTT)
O=C[C@H](O)[C@H](O)[C@H](O)CO [Ribose, D-ribose] | 5000 µM | did not change | 
COc1cccc2c1C(=O)c1c(O)c3c(c(O)c1C2=O)C[C@@](O)(C(=O)CO)C[C@@H]3O[C@H]1C[C@H](N)[C@H](O)[C@H](C)O1 [Doxo, doxorubicin, reference compound] |  |  | 35%
CN(CC(=O)O)C(=N)N.O [Creatine, Creatine monohydrate] | 2500 µM | did not change | 
